Data reported in patent US10065990B2, “Cyclic peptide compound, and preparation method, pharmaceutical composition and use thereof” (HANGZHOU GUANYU BIO-MEDICAL CO., LTD, priority 2013, dated 2018).
Read-outs that look alike come from different tables or passages of the source.

Tests used:
[1] = test system: KBM5-T315I (human chronic myelogenous leukemia); assay: MTT cancer cell growth inhibition; format: cell-based; settings: Homo sapiens, 72 h, MTT, 72 hours incubation, KBM5-T315I cells; read-out: GI50 KBM5-T315I
In short: (§1)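 Absorbance at 570 nm of DMSO-dissolved formazan, formed during a 4 h MTT incubation, served as the viability measure. Cells had been exposed 72 h to drug at 10^−5–10^−10 M final; GI50 was calculated from these readings.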

[2] = test system: MCF-7 (human breast cancer cells); assay: MTT cancer cell growth inhibition; format: cell-based; settings: Homo sapiens, MCF7, 72 h
In short: as §1

[3] = test system: A549 (human lung cancer cells); assay: MTT cancer cell growth inhibition; format: cell-based; settings: Homo sapiens, A549, 72 h, MTT
In short: as §1

[4] = test system: H1975 (non-small cell lung adenocarcinoma); assay: MTT cancer cell growth inhibition; format: cell-based; settings: Homo sapiens, NCI-H1975, 72 h, MTT, 72 hours incubation, H1975 cells; read-out: GI50 H1975
In short: as §1

[5] = test system: MOLT-4 (human acute lymphoblastic leukemia cells); assay: MTT cancer cell growth inhibition; format: cell-based; settings: Homo sapiens, MOLT-4, 72 h, MTT
In short: as §1

HDAC8 = biological target: T1, HDAC8 (Homo sapiens, UniProt Q9BY41); assay: HDAC biochemical activity measurement (fluorescent substrate deacetylation); settings: 37° C. 30 minutes
T1 sequence (Q9BY41 1-377): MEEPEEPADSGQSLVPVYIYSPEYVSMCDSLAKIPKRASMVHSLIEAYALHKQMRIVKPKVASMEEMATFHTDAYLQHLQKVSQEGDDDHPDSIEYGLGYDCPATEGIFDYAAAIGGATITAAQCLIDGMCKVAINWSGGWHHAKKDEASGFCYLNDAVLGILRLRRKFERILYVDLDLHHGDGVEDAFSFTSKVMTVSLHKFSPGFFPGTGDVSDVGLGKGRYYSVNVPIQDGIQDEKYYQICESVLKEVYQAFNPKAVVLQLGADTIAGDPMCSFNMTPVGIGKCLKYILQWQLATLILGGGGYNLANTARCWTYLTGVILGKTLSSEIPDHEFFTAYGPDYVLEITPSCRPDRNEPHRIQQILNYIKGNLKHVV

HDAC11 = biological target: T2, HDAC11 (Homo sapiens, UniProt Q96DB2); assay: as above;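 note: HDAC11 enzyme acting on an acetyl-lysine fluorogenic substrate, then a developer frees the fluorophore, read at excitation 360 nm and emission 460 nm, IC50 over a compound dilution series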
T2 sequence (Q96DB2 1-347): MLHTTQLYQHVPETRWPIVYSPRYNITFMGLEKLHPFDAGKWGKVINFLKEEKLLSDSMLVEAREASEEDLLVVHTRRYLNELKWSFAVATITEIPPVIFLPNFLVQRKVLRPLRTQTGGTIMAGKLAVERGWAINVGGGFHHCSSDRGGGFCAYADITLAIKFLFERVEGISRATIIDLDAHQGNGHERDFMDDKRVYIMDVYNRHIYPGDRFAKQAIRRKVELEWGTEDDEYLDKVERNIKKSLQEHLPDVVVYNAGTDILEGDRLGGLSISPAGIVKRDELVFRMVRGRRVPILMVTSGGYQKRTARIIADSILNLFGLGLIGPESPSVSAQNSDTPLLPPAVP
Protocol: The chemical activity of the compound is determined according to the degree of deacetylation inhibition of the HDAC enzyme. This experiment measured the degree of deacetylation related to tumor proliferation and metastasis of HDAC1, HDAC2, HDAC3, HDAC8, HDAC11 five subtypes HDAC enzymes. After the substrate containing an acetylated lysine side chain and HDAC enzyme are labeled with a fluorescent label, the fluorescent substrate is de acetyl. The fluorescent labeled substrate is cleaved by the enzyme, and the fluorescent substance is released, which generates 460 nm emission light under the excitation of 360 nm light.
HDAC substrate was diluted with reaction buffer to 200M (reaction concentration of 20M), the HDAC enzyme was diluted to the appropriate concentration, then added different concentrations of the test compounds and acted at 37° C. 30 minutes, and then added the same volume of 2-times concentration substrate developing solution (developer), incubated at room temperature for 15 minutes.

HDAC1 = HDAC1 (Homo sapiens, UniProt Q13547); assay: as above
HDAC2 = HDAC2 (Homo sapiens, UniProt Q92769); assay: as above; settings: 37° C. 30 minutes;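 note: HDAC2 enzyme with an acetyl-lysine fluorescent substrate, then developer added, fluorescence read at excitation 360 nm and emission 460 nm, inhibition measured across several compound concentrations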
HDAC7 = biological target: T3, HDAC7 (Homo sapiens, UniProt Q8WUI4); assay: as above; settings: HDAC7; 37° C. 30 minutes;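 note: fluorogenic deacetylation assay using acetyl-lysine substrate at 20 µM, enzyme and compound incubated 30 min at 37 °C, then developer added, fluorescence read at 360/460 nm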
T3 sequence (Q8WUI4 1-952): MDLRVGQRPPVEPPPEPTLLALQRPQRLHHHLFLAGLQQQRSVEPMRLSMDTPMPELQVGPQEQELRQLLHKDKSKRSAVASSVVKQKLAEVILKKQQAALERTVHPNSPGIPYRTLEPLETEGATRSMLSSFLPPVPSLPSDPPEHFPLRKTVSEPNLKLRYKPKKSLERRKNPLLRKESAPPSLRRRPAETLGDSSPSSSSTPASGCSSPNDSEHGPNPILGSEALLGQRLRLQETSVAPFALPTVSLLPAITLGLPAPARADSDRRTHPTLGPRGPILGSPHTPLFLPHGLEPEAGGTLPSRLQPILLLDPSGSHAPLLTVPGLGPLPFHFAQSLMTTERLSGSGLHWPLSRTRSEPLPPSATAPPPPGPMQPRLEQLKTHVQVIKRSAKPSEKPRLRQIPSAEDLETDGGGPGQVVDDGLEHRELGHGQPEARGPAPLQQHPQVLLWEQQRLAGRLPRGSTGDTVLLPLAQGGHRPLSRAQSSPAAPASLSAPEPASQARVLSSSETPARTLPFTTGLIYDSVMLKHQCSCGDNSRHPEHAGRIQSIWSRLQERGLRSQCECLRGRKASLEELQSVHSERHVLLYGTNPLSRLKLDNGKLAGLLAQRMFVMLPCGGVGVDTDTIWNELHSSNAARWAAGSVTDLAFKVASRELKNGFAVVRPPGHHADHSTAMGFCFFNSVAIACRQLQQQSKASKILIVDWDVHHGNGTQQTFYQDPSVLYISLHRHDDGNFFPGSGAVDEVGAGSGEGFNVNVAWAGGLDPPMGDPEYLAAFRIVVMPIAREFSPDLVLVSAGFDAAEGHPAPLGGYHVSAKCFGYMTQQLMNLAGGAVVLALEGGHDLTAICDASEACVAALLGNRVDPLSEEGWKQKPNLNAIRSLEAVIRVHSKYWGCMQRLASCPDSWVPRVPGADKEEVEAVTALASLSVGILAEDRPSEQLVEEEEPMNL

HDAC3 = HDAC3 (Homo sapiens, UniProt O15379); assay: as above;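 note: fluorogenic acetyl-lysine substrate (20 µM) deacetylated by HDAC3, then developer added for 15 min at room temperature, release of fluorophore read at excitation 360 nm, emission 460 nm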
[6] = MCF-7 cells, 72 hours incubation, read-out: GI50 MCF
[7] = A549 cells, 72 hours incubation, read-out: GI50 A54
[8] = MOLT-4 cells, 72 hours incubation, read-out: GI50 Mol
[9] = HDAC1, 37° C. 30 minutes, read-out: IC50 HDAC1
[10] = 72 hours, present invention, read-out: GI50 MCF7, a
[11] = 72 hours, present invention, read-out: GI50 A549, a
[12] = 72 hours, present invention, read-out: GI50 Molt-4, a
[13] = read-out: IC50 HDAC11, HDAC11, 37° C. 30 minutes
[14] = Table 2, read-out: IC50 HDAC1, a (compounds of the present invention)
[15] = read-out: IC50 HDAC3, HDAC3, 37° C. 30 minutes
[16] = 72 hours incubation, read-out: GI50 MCF
[17] = 72 hours incubation, read-out: GI50 A54
[18] = 72 hours incubation, read-out: GI50 Mol
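Throughout, for IC50 HDAC1, C (six-membered ring with substituents): fluorogenic acetyl-lysine substrate (20 µM) deacetylated by HDAC1, then developer releases fluorophore read at 360 nm excitation and 460 nm emission, inhibitor incubated 30 min at 37 °C.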
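Throughout, for IC50 HDAC1, a (compounds of the present invention): fluorogenic acetyl-lysine substrate (20 µM) deacetylated by HDAC1, then developer releases fluorophore read at 360 nm excitation and 460 nm emission, inhibitor incubated 30 min at 37 °C.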
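Throughout, for IC50 HDAC1: fluorogenic acetyl-lysine substrate (20 µM) deacetylated by HDAC1, then developer releases fluorophore read at 360 nm excitation and 460 nm emission, inhibitor incubated 30 min at 37 °C.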

HDAC3, sequence (O15379 whole entry, species assumed): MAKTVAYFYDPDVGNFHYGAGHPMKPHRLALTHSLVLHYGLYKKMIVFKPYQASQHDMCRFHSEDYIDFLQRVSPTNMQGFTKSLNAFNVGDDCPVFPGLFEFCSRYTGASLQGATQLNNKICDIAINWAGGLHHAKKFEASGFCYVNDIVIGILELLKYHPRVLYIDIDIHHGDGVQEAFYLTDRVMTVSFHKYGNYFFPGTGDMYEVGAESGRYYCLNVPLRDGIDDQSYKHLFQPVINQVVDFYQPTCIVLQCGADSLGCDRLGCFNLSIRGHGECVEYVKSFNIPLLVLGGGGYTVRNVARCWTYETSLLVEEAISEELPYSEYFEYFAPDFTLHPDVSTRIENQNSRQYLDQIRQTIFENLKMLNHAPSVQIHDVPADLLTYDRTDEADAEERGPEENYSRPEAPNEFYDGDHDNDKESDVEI
HDAC3, sequence (Q9Y618 395-489 partner limits assumed, species assumed): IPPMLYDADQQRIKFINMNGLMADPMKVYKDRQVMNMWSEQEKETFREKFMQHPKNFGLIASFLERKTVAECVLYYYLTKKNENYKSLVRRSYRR
HDAC2, sequence (Q92769 whole entry, species assumed): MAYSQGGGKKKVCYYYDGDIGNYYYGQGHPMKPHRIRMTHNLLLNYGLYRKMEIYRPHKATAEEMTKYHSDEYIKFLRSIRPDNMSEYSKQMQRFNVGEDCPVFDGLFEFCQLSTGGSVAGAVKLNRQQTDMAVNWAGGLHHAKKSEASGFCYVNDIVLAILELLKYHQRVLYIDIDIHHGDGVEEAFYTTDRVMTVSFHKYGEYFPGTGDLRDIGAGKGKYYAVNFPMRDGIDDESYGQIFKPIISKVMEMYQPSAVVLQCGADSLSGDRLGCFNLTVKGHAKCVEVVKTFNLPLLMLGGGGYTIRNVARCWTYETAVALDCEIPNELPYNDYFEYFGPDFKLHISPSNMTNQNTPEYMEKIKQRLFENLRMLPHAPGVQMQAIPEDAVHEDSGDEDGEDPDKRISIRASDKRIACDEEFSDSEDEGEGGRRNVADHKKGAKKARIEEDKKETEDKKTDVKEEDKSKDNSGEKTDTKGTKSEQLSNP
HDAC1, sequence (Q13547 whole entry, species assumed): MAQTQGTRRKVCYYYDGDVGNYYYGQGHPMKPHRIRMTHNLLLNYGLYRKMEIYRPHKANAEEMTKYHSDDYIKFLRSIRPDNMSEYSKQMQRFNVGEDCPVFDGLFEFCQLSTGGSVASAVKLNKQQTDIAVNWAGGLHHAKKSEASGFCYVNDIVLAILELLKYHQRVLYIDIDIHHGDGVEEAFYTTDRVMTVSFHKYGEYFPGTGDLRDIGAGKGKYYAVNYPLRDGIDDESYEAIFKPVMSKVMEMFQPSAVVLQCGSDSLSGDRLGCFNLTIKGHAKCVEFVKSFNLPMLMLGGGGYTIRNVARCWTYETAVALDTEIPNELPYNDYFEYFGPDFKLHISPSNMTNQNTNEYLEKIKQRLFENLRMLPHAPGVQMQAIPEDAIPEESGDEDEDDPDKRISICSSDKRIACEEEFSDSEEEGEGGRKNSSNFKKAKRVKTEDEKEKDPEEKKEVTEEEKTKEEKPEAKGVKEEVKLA

Structure (SMILES)	GI50 [1] [nM]	GI50 [2, 6] [nM]	GI50 [3, 7] [nM]	GI50 [4] [nM]	GI50 [5, 8] [nM]	IC50 (HDAC8) [nM]	IC50 (HDAC11) [nM]	IC50 (HDAC1; [9]) [nM]	IC50 (HDAC2) [nM]	IC50 HDAC7 (HDAC7)	IC50 (HDAC3) [nM]	GI50 [2, 10] [nM]	GI50 [3, 11] [nM]	GI50 [5, 12] [nM]	IC50 (HDAC1; [14]) [nM]	GI50 [2, 16] [nM]	GI50 [3, 17] [nM]	GI50 [5, 18] [nM]	other results
C/C=C1\NC(=O)c2cccc(n2)CNC(=O)C[C@@H](/C=C/CCSC(=O)CCCCCCC)OC(=O)[C@H](c2ccc(O)cc2)NC1=O [Compound 238]	66	20	10	82		78		44	83	no activity		23	16	8	< 50				IC50 (HDAC11; [13]): 65 nM; IC50 (HDAC3; [15]): 59 nM
C/C=C1\NC(=O)c2cccc(n2)CNC(=O)C[C@@H](/C=C/CCSC(=O)CCCCCCC)OC(=O)[C@H](CCSC)NC1=O [Compound 240]	83		10	56	30	52	56	45	21	no activity	53	1	36	18	< 50				
C/C=C1\NC(=O)c2nc(ccc2F)CCNC(=O)C[C@@H](/C=C/CCSC(C)=O)OC(=O)[C@H](C(C)C)NC1=O [Compound 103]	51			26		16	93	38	29	no activity	53					30	40	20	
C/C=C1\NC(=O)c2nc(ccc2F)CNC(=O)C[C@@H](/C=C/CCSC(=O)CCCCCCC)OC(=O)[C@H](C)NC1=O [Example 60]	83			42		53	88	81	37	no activity	16					80	40	10	
C/C=C1\NC(=O)c2nc(ccc2SC)CNC(=O)C[C@@H](/C=C/CCSC(=O)CCCCCCC)OC(=O)[C@H](CC)NC1=O [Compound 171]	68	10	50	71	20	35	95	68	35	no activity	18								
C/C=C1\NC(=O)c2nc(ccc2SCCC)CNC(=O)C[C@@H](/C=C/CCSC(=O)CCCCCCC)OC(=O)[C@H](CC)NC1=O [Compound 174]	96	80	50	57	20	21	98	84	32	no activity	26								
C/C=C1\NC(=O)c2nc(ccc2F)CNC(=O)C[C@@H](/C=C/CCSC(=O)CCCCCCC)OC(=O)[C@H](CC)NC1=O [Example 54]	63			43		34	99	74	24	no activity	34					60	60	30	

Stronger by GI50 [1], values ahead:

GI50 [1] [nM]	GI50 [2, 6] [nM]	GI50 [3, 7] [nM]	GI50 [4] [nM]	GI50 [5, 8] [nM]	IC50 (HDAC8) [nM]	IC50 (HDAC11) [nM]	IC50 (HDAC1; [9]) [nM]	IC50 (HDAC2) [nM]	IC50 HDAC7 (HDAC7)	IC50 (HDAC3) [nM]	GI50 [2, 10] [nM]	GI50 [3, 11] [nM]	GI50 [5, 12] [nM]	IC50 (HDAC1; [14]) [nM]	GI50 [2, 16] [nM]	GI50 [3, 17] [nM]	GI50 [5, 18] [nM]	Structure (SMILES)	other results
28	60	60	54	80	42	92	73	51	no activity	34								C/C=C1\NC(=O)c2ccc(SC)c(n2)CNC(=O)C[C@@H](/C=C/CCSC(C)=O)OC(=O)[C@H](CC)NC1=O [Compound 179]	
23	10	10	91		89		77	56	no activity		19	12	4	< 100				C/C=C1\NC(=O)c2cccc(n2)CNC(=O)C[C@@H](/C=C/CCSC(=O)CCCCCCC)OC(=O)[C@H](Cc2cccc3ccccc23)NC1=O [Compound 239]	IC50 (HDAC11; [13]): 28 nM; IC50 (HDAC3; [15]): 47 nM
22			39		43		12	56	no activity						20	30	30	C/C=C1\NC(=O)c2nc(ccc2F)CNC(=O)C[C@@H](/C=C/CCSC(=O)CCCCCCC)OC(=O)[C@H](C(C)C)NC1=O [Compound 30]	IC50 (HDAC11; [13]): 84 nM; IC50 (HDAC1; Table 3, column C, read-out: IC50 HDAC1, C (six-membered ring with substituents)): 12 nM; IC50 (HDAC3; [15]): 34 nM
33	70	190	21	30	55	67	19	43	no activity	32	73	190	32	< 20				C/C=C1\NC(=O)c2cccc(n2)CNC(=O)C[C@@H](/C=C/CCSC(=O)CCCCCCC)OC(=O)[C@H](CSCC)NC1=O [Compound 242]	
31			31		64	94	91	64	no activity	46					53700	38900	3350	C/C=C1\NC(=O)c2cccc(n2)CCNC(=O)C[C@@H](/C=C/CCSC(C)=O)OC(=O)[C@H](C(C)C)NC1=O [Example 26]	
